Source: patent US20180126014A1, “COMPOSITIONS FOR ENHANCING DELIVERY OF AGENTS ACROSS THE BLOOD BRAIN BARRIER AND METHODS OF USE THEREOF” (Yale University, priority 2015, published 2018)

Legend:
[1] = test system: intracranial GL261 tumors; conditions: NPs co-loaded with IR780 and BBB modulator, three consecutive days, imaged 24 h after last injection
Experimental: For the intracranial GL261 tumor implantation, 5-6 week old female C57BL6 mice were anesthetized via intraperitoneal injection of ketamine hydrochloride (75 mg/kg, Abbot Laboratories) and xylazine (7.5 mg/kg, Phoenix Pharmaceutical) in sterile saline. Twenty thousand GL261 cells in 2 μL of PBS were injected into the right striatum (1.8 mm lateral to the bregma and 3 mm of depth) using a stereotactic fixation device with mouse adaptor. For the subcutaneous GL261 xenograft model, 1×10^6 GL261 cells in 100 μL of PBS were inoculated subcutaneously into the right flank region of female C57BL6 mice. For the intracranial U87-MG glioma model, 1×10^6 U87-MG cells in 2 μL of PBS was injected into the right striatum of BALB/c nude mice using the same procedures.
(§1) Then the hair on the head was shaved and mice were anesthetized and imaged using the IVIS fluorescence imaging system on day 20. Finally, mice were sacrificed and organs resected for further imaging.
At 24 h after the last injection, the hair on the head was shaved and mice were anesthetized and imaged using an IVIS imaging system (Xenogen). Finally, mice were sacrificed and organs resected for further imaging. The fluorescence signal intensity of excised organs was quantified using Living Image 3.0.
as §1

A1 adenosine receptor = target: T1, A1 adenosine receptor (Homo sapiens, UniProt P30542); conditions: cited from earlier work
T1 sequence (P30542 1-326): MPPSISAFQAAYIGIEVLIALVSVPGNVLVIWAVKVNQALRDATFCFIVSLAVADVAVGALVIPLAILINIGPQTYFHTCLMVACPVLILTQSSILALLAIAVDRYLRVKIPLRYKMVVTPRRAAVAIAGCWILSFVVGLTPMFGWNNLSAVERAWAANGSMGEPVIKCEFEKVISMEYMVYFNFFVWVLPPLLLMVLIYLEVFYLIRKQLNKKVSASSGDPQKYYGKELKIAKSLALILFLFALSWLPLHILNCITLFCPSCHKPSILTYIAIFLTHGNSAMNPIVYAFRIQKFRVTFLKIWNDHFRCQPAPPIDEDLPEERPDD

A2B adenosine receptor = target: T2, A2B adenosine receptor (Homo sapiens, UniProt P29275); conditions: cited from earlier work
T2 sequence (P29275 1-332): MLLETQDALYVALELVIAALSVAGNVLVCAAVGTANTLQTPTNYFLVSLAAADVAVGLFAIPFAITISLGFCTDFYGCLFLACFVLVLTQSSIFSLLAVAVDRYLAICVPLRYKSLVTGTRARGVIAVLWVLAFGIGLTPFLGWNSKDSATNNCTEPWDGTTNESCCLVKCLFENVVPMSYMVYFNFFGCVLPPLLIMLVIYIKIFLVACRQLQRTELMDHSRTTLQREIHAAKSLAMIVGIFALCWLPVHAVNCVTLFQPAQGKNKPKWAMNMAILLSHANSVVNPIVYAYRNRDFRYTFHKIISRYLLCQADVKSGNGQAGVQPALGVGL

A3 adenosine receptor = target: T3, A3 adenosine receptor (Homo sapiens, UniProt P0DMS8); conditions: cited from earlier work
T3 sequence (P0DMS8 1-318): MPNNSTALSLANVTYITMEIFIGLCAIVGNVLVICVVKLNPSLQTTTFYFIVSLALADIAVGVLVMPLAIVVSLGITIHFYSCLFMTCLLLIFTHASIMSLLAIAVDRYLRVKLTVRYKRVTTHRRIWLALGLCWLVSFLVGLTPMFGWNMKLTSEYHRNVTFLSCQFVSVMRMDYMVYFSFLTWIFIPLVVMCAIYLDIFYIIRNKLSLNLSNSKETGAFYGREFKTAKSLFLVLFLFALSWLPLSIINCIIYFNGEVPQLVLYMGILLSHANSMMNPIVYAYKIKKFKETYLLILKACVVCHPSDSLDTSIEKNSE

[2] = test system: MDA-MB-231Br brain metastases; assay: Paclitaxel-loaded ABTT NPs in MDA-MB-231Br derived brain metastasis model; type: in vivo, mice; conditions: three times a week for three weeks
Experimental: Nanoparticles were prepared similarly to those described above for Examples 1 and 6, but including the CTX targeting moiety as described in Example 6. […] Briefly, for synthesis of paclitaxel-loaded NPs, 100 mg mIII-62% in 2 mL DCM containing 2.5 mg LEXISCAN® and 20 mg paclitaxel was added dropwise to 4 mL 2.5% PVA under vortex and sonicated to form a oil/water emulsion. The emulsion was poured into a beaker containing 0.3% PVA and stirred for 3 h to evaporate DCM. NPs were collected by centrifugation at 20000 rpm for 30 min. The precipitate was suspended in PBS and reacted with thiolated CTX […] at room temperature. Nanoparticles were collected, suspended in H2O and lyophilized for storage and characterization.
In both studies, mice were treated with nanoparticles for three times a week for three weeks at a dose of 2 mg/mouse. It is believed that enhanced efficacy can be achieved with a higher dose treatment (maximum tolerated dose >15 mg per treatment) or with extended treatment time.

CNC(=O)c1cnn(-c2nc(N)c3ncn([C@@H]4O[C@H](CO)[C@@H](O)[C@H]4O)c3n2)c1 [Regadenoson, 2-{4-[(methylamino)carbonyl]-1H-pyrazol-1-yl}adenosine]
delivery of CTX-mHph2-III-62% NPs to the brain with encapsulated BBB modulator [1]: significantly enhanced delivery | Ki (A1 adenosine receptor): > 16.5 µM | lower affinity for the A1 adenosine receptor than for A2A (A1 adenosine receptor): at least 10 fold | affinity (A2B adenosine receptor): weak, if any | affinity (A3 adenosine receptor): weak, if any

CCNC(=O)[C@H]1O[C@@H](n2cnc3c(N)ncnc32)[C@H](O)[C@@H]1O [NECA, 1-(6-Amino-9H-purin-9-yl)-1-deoxy-N-ethyl-β-D-ribofuranuronamide]
delivery of CTX-mHph2-III-62% NPs to the brain with encapsulated BBB modulator [1]: significantly enhanced delivery

CC(=O)O[C@H]1C(=O)[C@@]2(C)[C@H]([C@H](OC(=O)c3ccccc3)[C@]3(O)C[C@H](OC(=O)[C@H](O)[C@@H](NC(=O)c4ccccc4)c4ccccc4)C(C)=C1C3(C)C)[C@]1(OC(C)=O)CO[C@@H]1C[C@@H]2O [free paclitaxel, paclitaxel]
median survival time [2]: 45 days

Nc1cc(N2CCCCC2)nc(N)[n+]1[O-] [minoxidil]
delivery of CTX-mHph2-III-62% NPs to the brain with encapsulated BBB modulator [1]: significantly enhanced delivery
